Assay results: PubChem BioAssay AID1035470 (Broad Institute, 2014)
Inconclusive results are not listed. Active and inactive are the calls of the source.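 Rule for the calls: active = compound lowering the normal-ribosome reporter at least twice as much as the humanized-ribosome reporter, growth loss under a set limit; inconclusive = no clear call, values can overlap the other calls; inactive = the rest.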

System: E. coli WT-GFP vs G2058-humanized RFP, fluorescence, 24 h
Assay: E. coli strain growth, wild-type against G2058 humanized RFP mutant – G2058 mutant RFP vs wild-type GFP, cherry-pick, two tests, dose response (AID 1035470)
[1] = E. coli WT-GFP vs G2058-humanized RFP mixed culture, total growth OD600, 24 h
[2] = measured here: G2058 humanized mutant RFP growth

Row | SMILES | AC50 | AC50 [1] [µM] | also measured
1 | Cc1ccc(Oc2ccc(S(=O)(=O)N3CCOCC3)cc2C(N)=O)cc1C | > 100 µM (inactive) | > 100 | –
2 | CCOC(=O)c1c(C)[nH]c(C)c1S(=O)(=O)NCCN1CCN(c2ccccc2F)CC1 | > 100 µM (inactive) | > 100 | –
3 | CC(C(=O)Nc1nc2ccccc2s1)n1cc([N+](=O)[O-])cn1 (stereo unspecified) | > 100 µM (inactive) | > 100 | AC50 [2]: > 100 µM
4 | Nc1c(C(=O)NCCN2CCOCC2)c2nc3ccccc3nc2n1Cc1ccccc1 | > 100 µM (inactive) | – | –
5 | CCOC(=O)C1(CCCc2ccccc2)CCN(C(=O)CCn2cncn2)CC1 | > 100 µM (inactive) | – | –
6 | COC(=O)c1sccc1NC(=O)CNC(=O)c1ccccc1 | – | > 100 | –
7 | CCOc1ccc(CN(C)C(=O)c2ccc(NS(=O)(=O)c3ccc4[nH]c(=O)[nH]c4c3)cc2)cc1 | – | > 100 | –
8 | Cc1cc2nc(SCC(=O)O)nc(C)c2cc1C | > 100 µM (inactive) | > 100 | –
9 | CC(=O)c1c(C)nn(CC(O)COc2ccc3c(c2)CCC3)c1C (stereo unspecified) | > 100 µM (inactive) | – | –
10 | O=C(CSCc1cnn(-c2ccccc2)c1-n1cccc1)NCc1cccnc1 | – | > 100 | –
11 | Cc1cc([N+](=O)[O-])nn1CC(=O)Nc1cc(F)ccc1F | > 100 µM (inactive) | – | –
12 | O=C(Nc1ccccc1Cl)c1ccc2c(c1)N(Cc1ccc(F)cc1)C(=O)CS2=O (stereo unspecified) | > 100 µM (inactive) | – | –
13 | COc1cccc(CNC(=O)CCSCc2ccccc2F)c1 | > 100 µM (inactive) | – | AC50 [2]: > 100 µM
14 | COC(=O)c1c(NC(=O)CCC(=O)O)sc(Cc2ccccc2)c1C | 28.4 µM | 35.7 | AC50 (E. coli WT-GFP vs G2058-humanized RFP mixed culture, OD600 growth, 24 h, test 1): 27 µM; AC50 [2]: 5.11 µM; AC50 (measured here: mutant RFP, test 1): 11.9 µM; AC50 (measured here: wild-type GFP, test 1): 1.53 µM
15 | O=C1c2ccccc2C(c2nnnn2C2CCCCC2)N1CCc1ccc(O)cc1 (stereo unspecified) | > 100 µM (inactive) | – | –
16 | COc1cc2c(cc1OC)CN(CC(=O)Nc1ccccc1SC)CC2 | > 100 µM (inactive) | > 100 | AC50 [2]: 47.2 µM
17 | CCOC(=O)c1cc(-c2ccc(OC)cc2)n[nH]1 | > 100 µM (inactive) | – | –
18 | O=C(c1ccc(N2CCCCC2)c([N+](=O)[O-])c1)N1CCN(c2ccccn2)CC1 | – | > 100 | –
19 | Cc1ccc(C2NC(=O)c3[nH]nc(-c4ccccc4)c32)cc1 (stereo unspecified) | > 100 µM (inactive) | > 100 | –
20 | O=C(O)CC(CC(=O)Nc1ccc2ccccc2n1)c1ccccc1 (stereo unspecified) | – | – | AC50 [2]: > 100 µM

Row | SMILES | AC50 | AC50 [1] [µM] | also measured
21 | CCOc1ccc(S(=O)(=O)N(C)c2ccc(OCC(=O)NCc3cccnc3)cc2)cc1 | > 100 µM (inactive) | > 100 | –
22 | N#Cc1ccc(-c2ccc(C3[C@H]4CNC[C@@H]3N4S(=O)(=O)c3ccc(-c4ccccc4)cc3)cc2)cc1 (stereo partly specified) | – | > 100 | –
23 | COc1cccc(OC)c1CNC(=O)CCSCc1ccccc1F | > 100 µM (inactive) | > 100 | –
24 | Cc1noc(C)c1COc1cccc(C(=O)N2CCc3ccccc32)c1 | > 100 µM (inactive) | – | –
25 | Cc1cccc(C(=O)NCC(=O)NCCSc2ccc(Br)cc2)c1 | > 100 µM (inactive) | – | AC50 [2]: 7.48 µM
26 | CCn1nc(C(=O)OCc2cccc(S(=O)(=O)N(C)C)c2)c2ccccc2c1=O | > 100 µM (inactive) | – | –
27 | COC(=O)c1ccc(OCC(=O)c2ccccc2OC)cc1 | > 100 µM (inactive) | > 100 | –
28 | c1ccc(Nc2ccc3ccccc3c2)cc1 | > 100 µM | – | AC50 [2]: > 100 µM
29 | O=c1c2ccccc2nc(SCc2ccccc2)n1CC1CCCO1 (stereo unspecified) | – | > 100 | –
30 | COc1cccc(NC(=O)COC(=O)Cc2ccccc2[N+](=O)[O-])c1 | > 100 µM (inactive) | > 100 | –
31 | NC(=O)c1ccsc1NC(=O)COC(=O)CSc1ccc(Cl)cc1 | > 100 µM (inactive) | > 100 | –
32 | O=C(COC(=O)C1CC2C=CC1C2)NCCc1ccccc1 (stereo unspecified) | – | > 100 | –
33 | Nc1[nH]c(C(=O)c2ccccc2)c(-c2ccc(Br)cc2)c1C(=O)c1cccs1 | > 100 µM (inactive) | > 100 | –
34 | C[C@H](CO)N1C[C@H](C)[C@H](CN(C)C(=O)Nc2ccc3c(c2)OCO3)Oc2c(NC(=O)Nc3ccccc3)cccc2C1=O | > 100 µM (inactive) | – | –
35 | O=C(Nc1cscc1S(=O)(=O)c1ccccc1)c1ccccc1Cl | > 100 µM (inactive) | – | –
36 | CC(C)(C)c1ccc(S(=O)(=O)NCc2ccc(C(=O)NCc3ccccn3)cc2)cc1 | > 100 µM (inactive) | > 100 | –
37 | COc1ccc(Oc2ccc(C(F)(F)F)cc2NC(=O)CC(CC(=O)O)c2ccccc2)cc1 (stereo unspecified) | > 100 µM (inactive) | > 100 | –
38 | Cn1cc(CN2CCCC(C(=O)Nc3cccc(-c4cc5ccccc5[nH]4)c3)C2)cn1 (stereo unspecified) | > 100 µM (inactive) | – | –
39 | CCN(CC)S(=O)(=O)c1cc(NC(=O)C(C)N2CCN(Cc3ccc4c(c3)OCO4)CC2)ccc1C (stereo unspecified) | > 100 µM (inactive) | – | AC50 [2]: > 100 µM
40 | COc1cccc(CN(C)Cc2nc(Cc3ccccc3Cl)no2)c1 | > 100 µM (inactive) | > 100 | –
